Test results: patent publication US11999806B2, “Broad-spectrum polypeptide against enterovirus and application thereof” (WUHAN INSTITUTE OF VIROLOGY, CHINESE ACADEMY OF SCIENCES, priority 2018, dated 2024)
Several values for one entry are separate records, joined by “and”; a condition that tells them apart may be missing. Equal entries are not always repeated. Where two headings read alike, the source gives them in different places.

Experiments:
EV71 [1] = format: cell-based, enterovirus 71; conditions: EV71 0.1 MOI, RD cells, 24 h; for Virus inhibition rate (%): CCK-8
Method: • (1) 293T cells were plated in a 24-well cell plate. • (2) After the cells reached 70%-80% confluence, the MEM medium containing 10% serum was replaced with a MEM medium containing 2% serum (0.5 ml/well), and 5 μl of 10^6 PFU/mL EV71 virus per well was added. • (3) After 1 hour, polypeptides P2, 3A-TAT-EP, 3A-EP-DRI and 3A-EP-PEG-PA were added at a final concentration of 0.01 μM, 0.1 μM, 1 μM, and 10 μM, respectively. • (4) Samples were collected 24 hours after virus infection, and RNA was extracted with a total RNA extraction kit. • (5) The supernatant in each well was discarded, then 350 μl of TRK Lysis Buffer was added to the well and the plate was shaken on the shaker for 5 minutes. • (6) 350 μl of 70% ethanol (DEPC-treated) was added to the well and the plate was shaken on the shaker for 5 minutes. • (7) The mixture in the well was transferred to a RNA extraction column and centrifuged at 12000 g for 1 min. • (8) The solution collected in the recovery tube was added back to the column and centrifuged at 12,000 g for 1 min. • (9) RNA washing buffer 1 was added to the column and centrifuged at 12,000 g for 30 s. • (10) RNA washing buffer 2 was added to the column and centrifuged at 12,000 g for 1 min. • (11) Step (10) was repeated once. • (12) The empty column was centrifuged at 12,000 g for 2 min to completely remove residual RNA washing buffer. • (13) 50 μl DEPC-treated water was added to the column and centrifuge at 12000 g for 2 min. • (14) 2 μl RNA sample was used according to one step qRT-PCR kit for fluorescence quantification experiment. 3. […] Each concentration was tested in triplicate. • (3) The diluted virus solution was added to the plate of step (1), 100 μL per well with the final virus concentration was 0.1 MOI. Wells without polypeptide and virus (well without treatment), wells with virus only were used as controls. • (4) The mixture of step (2) was added to the 96-well plate plated with cells in step (1) and incubated in 5% CO2 at 37° C. for 24 h. Then CCK8 kit was used to determine the inhibitory effect of the polypeptide on virus. • (5) The inhibition rate of different concentrations of polypeptides on viral infection was calculated using the following formula: OD means the value of OD450-OD630, inhibition rate=(OD well with treatment−OD well with virus only)×100%/(OD well without treatment−OD well with virus only)
• (1) RD cells in good growth state were plated in a 96-well plate. • (2) After the cells reached 70%-80% confluence, the MEM medium containing 10% serum was replaced with a MEM medium containing 2% serum. Group without polypeptide and virus, and group with virus but without polypeptide were included as controls. The final virus concentration was 0.1 MOI. • (3) 1 h later, polypeptide CR at a final concentration of 5 μM, 2.5 μM, 1.25 μM, 0.625 μM, 0.3125 μM, and 0.15625 μM was added, respectively. Group without polypeptide and virus, and group with virus but without polypeptide were set as controls. • (4) 24 hours after virus infection, when the change in the control group with only virus was obvious, 10 μl of viable cell detection agent CCK-8 was added to each well and mixed well. • (5) The plate was incubated at 37° C. for 2 h. • (6) The absorbance value at OD450 was measured with a microplate reader. Inhibition rate of polypeptide=(OD well with treatment−OD well with virus only)×100%/(OD well without treatment−OD well with virus only), OD refers to the value of OD450-OD630.
• (1) RD cells in good growth state were plated in a 96-well plate. • (2) After the cells reached 70%-80% confluence, the MEM medium containing 10% serum was replaced with a MEM medium containing 2% serum. Group without polypeptide and virus, and group with virus but without polypeptide were included as controls. The final virus concentration was 0.1 MOI. • (3) 1 h later, polypeptide CR at a final concentration of 2.5 μM, 1.25 μM, 0.625 μM, 0.3125 μM, and 0.15625 μM was added, respectively. […]

EV71 [2] = assay: Antiviral activity against EV71 in mice, virus copies in hind limb muscle by qRT-PCR; format: in vivo, ICR suckling mice
Excerpt: (§1) • (1) 8 2-day-old ICR mice were randomly divided into two groups, 4 in each group.

CVA16 = assay: Antiviral activity against CVA16 in mice, virus copies in muscle by qRT-PCR; format: in vivo, ICR suckling mice; conditions: 10 mg/kg i.p. every 12 h for 5 days vs PBS
Excerpt: as §1
3. The Procedure for Detecting the Antiviral Activity of P1 Against CVA16 in Mice is Similar as the EV71 Experiment.
3. The Procedure for Detecting the Antiviral Activity of CR Against CVA16 in Mice is Similar to the EV71 Experiment.

N=C(N)NCCC[C@H](NC(=O)[C@H](CS)NC(=O)CNC(=O)[C@H](CO)NC(=O)CNC(=O)[C@H](CCCNC(=N)N)NC(=O)[C@H](CCCNC(=N)N)NC(=O)[C@H](CCCNC(=N)N)NC(=O)[C@H](CCC(N)=O)NC(=O)[C@H](CCCNC(=N)N)NC(=O)[C@H](CCCNC(=N)N)NC(=O)[C@H](CCCCN)NC(=O)[C@H](CCCCN)NC(=O)[C@H](CCCNC(=N)N)NC(=O)CNC(=O)[C@@H](N)Cc1ccc(O)cc1)C(=O)O [CR]
Virus inhibition rate (%) (EV71 [1]; 0.15625 μM): −4.346% and −7.143% and −8.595% | Virus inhibition rate (%) (EV71 [1]; 0.625 μM): 16.42% and 7.119% and 16.77% | Virus inhibition rate (%) (EV71 [1]; 1.25 μM): 50.8% and 47.5% and 45.63% | Virus inhibition rate (%) (EV71 [1]; 2.5 μM): 78.26% and 70.5% and 64.43% | Virus inhibition rate (%) (EV71 [1]; 5 μM): 74.47% and 71.5% and 69.26% | IC50 (EV71 [1]; read-out: IC50 against EV71 by CCK8 method): 1700 nM | EV71 viral load in mice, in words (EV71 [2]; 10 mg/kg i.p. every 12 h for 5 days vs PBS): can significantly reduce the EV71 viral load in mice | Number of EV71 virus copy in muscle tissue (Copies/g) (EV71 [2]; 2-day-old ICR mice, EV71 i.p., 10 mg/kg polypeptide i.p. every 12 h for 5 days, individual animals, 10 mg/kg): 1.88e+007 Copies/g and 1.122e+007 Copies/g and 1.738e+007 Copies/g and 9852432.0000 Copies/g | CVA16 viral load in mice, in words (CVA16): can significantly reduce the viral load of CVA16 in mice
